Measured values published in US10792280B2, “Pharmaceutical composition comprising amodiaquine and anti-diabetes drug as effective ingredient for prevention or treatment of diabetes” (NOVMETAPHARMA CO., LTD., priority 2016, dated 2020).

What was measured:
PPAR-γ = target: T1, PPAR-γ (Homo sapiens, UniProt P37231); test: PPAR-γ activation, GAL4-PPAR-γ-LBD luciferase reporter in BE(2)C cells; type: cell-based; conditions: 20 h treatment, up to 50 μM, FIGS. 1A, 1B
T1 construct: expressed in transfected cells; host or cells: BE(2)C cells
T1 sequence (P37231 238-503 limits assumed): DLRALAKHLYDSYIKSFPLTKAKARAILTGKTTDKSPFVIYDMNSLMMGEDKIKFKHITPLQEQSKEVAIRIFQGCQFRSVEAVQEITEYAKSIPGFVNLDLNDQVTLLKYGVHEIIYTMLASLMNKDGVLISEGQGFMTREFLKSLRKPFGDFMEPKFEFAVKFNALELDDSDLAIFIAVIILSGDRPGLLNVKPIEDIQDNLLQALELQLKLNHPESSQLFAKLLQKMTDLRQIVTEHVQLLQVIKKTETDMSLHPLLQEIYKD
Procedure: (§1) To examine whether amodiaquine acts as a ligand of […] or PPAR-α, three types of vectors were used.
(§2) The activation of luciferase expression was measured after BE(2)C cells were transformed with a GAL4-PPAR-γ-LBD plasmid or a GAL4-PPAR-α-LBD plasmid, a GAL4-luciferase vector, and a β-galactosidase vector for 6 hours, treated with amodiaquine for 20 hours, and then grown in a 5% CO2 incubator.

[1] = system: high fat-induced obesity mice; test: Intraperitoneal insulin tolerance test (IPITT) in high fat-induced obesity mice; type: in vivo, mouse; conditions: for blood glucose concentration after 2 hours vs fasting blood glucose (IPITT): HFD with simultaneous administration, 0.5 U/kg insulin i.p., FIG. 7B; for time of lowest blood glucose level after insulin (IPITT): administration after long-term HFD-induced obesity, FIG. 7C
From the text: For measurement of the blood glucose concentration, an intraperitoneal insulin tolerance test (IPITT) was used.

PPAR-α = target: T2, PPAR-α (Homo sapiens, UniProt Q07869); test: PPAR-α activation, GAL4-PPAR-α-LBD luciferase reporter in BE(2)C cells; type: cell-based; conditions: 20 h treatment, up to 50 μM, FIGS. 1C, 1D
T2 construct: expressed in transfected cells; host or cells: BE(2)C cells
T2 sequence (Q07869 239-466 limits assumed): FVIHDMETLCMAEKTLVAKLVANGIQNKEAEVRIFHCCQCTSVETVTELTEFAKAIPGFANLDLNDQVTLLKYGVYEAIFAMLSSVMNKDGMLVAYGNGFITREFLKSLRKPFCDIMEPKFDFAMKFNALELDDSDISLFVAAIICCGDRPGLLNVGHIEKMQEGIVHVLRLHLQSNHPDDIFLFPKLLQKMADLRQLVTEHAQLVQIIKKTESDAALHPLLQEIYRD
Procedure: as §1, §2

C2C12 myotube cells = test: Glucose uptake ([3H]2-DOG) in C2C12 myotube cells; type: cell-based, mouse; conditions: 10 μM or 30 μM, 24 h; compared with 50 μM rosiglitazone; FIG. 2
Procedure: The phosphorylation of insulin receptors occurs due to signal transduction by insulin in muscle, adipose, liver cells, and the like, and accordingly, when various proteins located downstream are phosphorylated, glucose uptake increases, resulting in reduced blood glucose. Thus, a glucose uptake evaluation experiment was carried out to identify whether amodiaquine is effective for diabetes. C2C12 myoblasts, which are muscle cells, were cultured in DMEM containing 10% […]. When the cell density reached about 80% to about 90%, the medium was replaced with fresh 2% horse serum-containing DMEM, and cell differentiation of the C2C12 myoblasts into myotubes was induced to completely differentiate the cells, and then an experiment was carried out. […] Washing was repeated three times every twenty minutes. Subsequently, 1 ml of KRP buffer was injected, a solution (0.2 mM, 0.2 μCi) prepared by dissolving unlabeled 2-DOG and [^3H]2-DOG (Amersham Pharmacia) in KRP buffer was added to the resulting cells at 37° C. to allow treatment for exactly 10 minutes.

KKAy mice [2] = test: Fasting blood glucose in KKAy mice (amodiaquine); type: in vivo, mouse; conditions: 18 mg/kg oral daily for 6 weeks, control 132.4 mg/dl
Procedure: (§3) 5-week-old KKAy purchased from Clea Japan was preliminarily raised for one week and then divided into two groups (5 individuals per group). The first group was administered PBS and set as a negative control, and the second group was orally administered amodiaquine at a concentration of 18 mg/kg daily for 6 weeks. […] For measurement of the blood glucose concentration, an intraperitoneal glucose tolerance test (IPGTT) was used.

KKAy mice [3] = test: Intraperitoneal glucose tolerance test (IPGTT) in KKAy mice; type: in vivo, mouse; conditions: 18 mg/kg oral daily for 6 weeks, 2 g/kg glucose i.p., control 293.2 mg/dl
Procedure: as §3

KKAy mice [4] = test: Glycated hemoglobin (HbA1C) in KKAy mice (amodiaquine); type: in vivo, mouse; conditions: 18 mg/kg oral daily for 6 weeks, FIG. 4
Procedure: As in Example 3, the first group of experimental animals was administered PBS and set as a control, and the second group was orally administered amodiaquine at a concentration of 18 mg/kg using a 1 ml syringe daily for 6 weeks.

[5] = system: high fat-induced obesity mice; test: Body weight of high fat-induced obesity mice; type: in vivo, mouse; conditions: amodiaquine 20 mg/kg
Procedure: To measure a decrease in body weight of mice by amodiaquine, 7-week-old male C57BL/6 mice (Charles River Laboratories, Tokyo, Japan) were purchased and raised under certain conditions (temperature: 22±2° C., relative humidity: 55±10%, and light/dark cycle: 12 hours). The mice were grouped into 7 individuals per group, freely fed water and diets in a cage, and then acclimated for 1 week before an experiment.
An average body weight was calculated by dividing the sum of weights of 7 mice per group by the number of mice.

[6] = system: high fat-induced obesity mice; test: Heat production, 4° C. cold test in high fat-induced obesity mice; type: in vivo, mouse; conditions: HFD 14 weeks, up to 6 hours at 4° C.; FIG. 6
Procedure: To measure the heat production capability of mice fed a high fat diet for 14 weeks among the experimental animals designed in Example 5, a 4° C. cold test was performed (Spiegelman B. M. et al., Cell 92: 829-839, 1998). Hereinafter, the measurement method will be described in detail. A body temperature of mice in the high fat-induced obesity mouse group was measured before being exposed to 4° C., and recorded as an experiment start measurement temperature, and then the mice were exposed in a 4° C. room for up to 6 hours, followed by measurement of body temperature every hour. The body temperature was measured using a rectal thermometer for a mouse (Testo 925, Germany). A heat production measurement value indicated a temperature measured every hour.

[7] = system: high fat-induced obesity mice; test: Oral glucose tolerance test (OGTT) in high fat-induced obesity mice; type: in vivo, mouse; conditions: HFD mice, 2 g/kg glucose oral; HFD control 180.5 mg/dl; FIG. 7A
Procedure: After fasting for 16 hours, 2 g/kg of glucose was orally administered to each of the control and experimental group animals, and a blood glucose concentration was measured every 30 minutes for 2 hours. For measurement of the blood glucose concentration, an oral glucose tolerance test (OGTT) was used.

[8] = system: high fat-induced obesity mice; test: Fatty liver histology (hematoxylin & eosin) in high fat-induced obesity mice; type: in vivo, mouse; conditions: HFD mice, 14 weeks and 22 weeks; FIGS. 8A and 8B
From the text: Among the experimental animals designed in Example 5, mice in the high fat-induced obesity mouse group fed a high fat diet for 14 weeks with drug administration and high fat-induced obesity mice fed a high fat diet for 7 weeks with drug administration after obesity was induced by a high fat diet for 15 weeks were sacrificed by cervical spine dislocation, fixed on a dissection stand, and subjected to abdominal dissection with a scalpel to extract the liver. The extracted liver tissue was fixed in a 10% formalin solution to prevent contractile deformation. After 24 hours, the fixed tissue was washed with running water, and then general tissue dehydration, clearing, and penetration were performed thereon using an automatic tissue processor (6460B, Sakura, Japan) for 14 hours, and manufacture of paraffin blocks and cooling were performed using an automated embedding device (Tissue-Tex, Japan). The manufactured paraffin blocks were continuously sliced to a thickness of 4 m to 5 m in a vertical direction of the tissue using a rotary microtome 2040 (Japan), and attached to slides after processing using a floating hot water tank and a slide warming table. […]

[9] = system: ACOX, CPT-1, and mCAD genes; test: Expression of PPAR-α target genes in liver, muscle and adipose tissues (real-time PCR); type: in vivo, mouse; conditions: muscle, adipose tissues, HFD 14 weeks, FIGS. 9A-9C
From the text: Among the experimental animals designed in Example 5, mice of the high fat-induced obesity mouse groups fed a high fat diet for 14 weeks were sacrificed by cervical spine dislocation, fixed on a dissection stand, and then subjected to dissection with a scalpel to extract liver, muscle, and adipose tissues, and primer base sequences of (β-actin, ACOX, CPT-1, and mCAD are as follows:
After each tissue was disrupted using a grinding instrument, RNA was extracted using TRIzol, and cDNA was synthesized using reverse transcription polymerase chain reaction (RT PCR). […] The ACOX, CPT-1, and mCAD genes were calibrated with β-actin, thereby obtaining resultant values.

Structure (SMILES)	PPAR-γ activity (luciferase expression) (PPAR-γ)	blood glucose concentration after 2 hours vs fasting blood glucose (IPITT) [1]	PPAR-α activity (luciferase expression) (PPAR-α)	glucose uptake (C2C12 myotube cells)	fasting blood glucose concentration (KKAy mice [2]) [mg/dL]	blood glucose concentration 2 hours after glucose loading (IPGTT) (KKAy mice [3]) [mg/dL]	glycated hemoglobin production as compared to control mice (KKAy mice [4])	body weight vs high fat-induced obesity mice ([5]; HFD with substance administration for 14 weeks, FIG. 5A)	body weight vs high fat-induced obesity mice ([5]; substance administration for 7 weeks after obesity induced by HFD for 15 weeks, rosiglitazone 50 mg/kg, FIG. 5C)	body temperature on exposure to 4° C. (heat production) [6]	blood glucose concentration 2 hours after glucose loading (OGTT) [7] [mg/dL]	time of lowest blood glucose level after insulin (IPITT) [1] [min]	liver appearance (fat accumulation, H&E) [8]	increase in expression amounts of the ACOX, CPT-1, and mCAD genes as compared to the control [9] [fold]
Cc1cccc(Nc2cc(Cl)nc(SCC(=O)O)n2)c1C [WY-14,643]	did not exhibit PPAR-γ activity	maintained at a lower level than the fasting blood glucose concentration	–	–	–	–	–	–	–	–	–	–	–	–
CCN(CC)Cc1cc(Nc2ccnc3cc(Cl)ccc23)ccc1O [amodiaquine]	higher PPAR-γ activity in a concentration-dependent manner than that of the positive control treated with rosiglitazone	maintained at a lower level than the fasting blood glucose concentration	high PPAR-α activity in a concentration-dependent manner	further increased as compared to that in the group treated with rosiglitazone	100.2	207	approximately 69%	significantly lower than that of the high fat-induced obesity mice	significant decrease in body weight	smaller decrease in body temperature than that of the high fat-induced obesity mice	139.1	30	almost the same appearance as that of normal mice	≥ 215
CN(CCOc1ccc(CC2SC(=O)NC2=O)cc1)c1ccccn1 (centres unmarked) [rosiglitazone]	–	–	–	–	–	–	–	–	–	–	–	60	–	–
